In patent US20020137929A1, “1 - (3-heterocyclylphenyl) isothiourea, -isourea, -guanidine and -amidine herbicidal agents” (Intellectual Property Department, BASF Aktiengesellschaft, priority 1998, published 2002):

Key:
[1] = system: CHEAL (Lambsquarters, Common); experiment: Postemergence herbicidal evaluation; format: in vivo, Chenopodium album; conditions: postemergence
Procedure, shortened: (§1)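 Scores (0–9) reflect plant stand, vigor, malformation, size, chlorosis and general appearance relative to control, read 4 to 5 weeks after treatment and averaged where tests were repeated. Application: about 0.0156–0.500 kg/ha sprayed at 40 psi onto two-week seedlings.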

[2] = system: CYPSE (Flatsedge); experiment: Postemergence weed control under flooded paddy conditions; format: in vivo, Cyperus serotinus; conditions: postemergence weeds, rated 3 to 4 weeks after treatment
Procedure, shortened: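 Herbicidal effect is judged by eye on a 0–9 scale versus control, 3–4 weeks after dosing. Dosing is into flood water kept 1.5–3 cm over the soil, at about 0.0313–0.500 kg/ha in aqueous/acetone 50/50 v/v, on 3–5 cm weeds and 1.5–2.5-leaf rice seedlings.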

[3] = system: TRZAWR (Wheat, Winter, cv Riband); experiment: Preemergence herbicidal evaluation; format: in vivo, Triticum aestivum; conditions: rated 4-5 weeks after treatment
Procedure, shortened: (§2)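 Each species is sown separately in potting soil over roughly an inch of soil before any emergence. The soil surface then receives an aqueous acetone spray delivering about 0.0156 to 0.500 kg/ha of compound. After four to five weeks, injury is scored from 0 to 9 relative to a control.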

[4] = system: SAGPY (Arrowhead (Pygmaea)); experiment: Preemergence weed control under flooded paddy conditions; format: in vivo, Sagittaria pygmaea; conditions: rated 3-4 weeks after treatment
Procedure, shortened: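 Values are visual 0-9 scores against a control for a preemergence application into paddy flood water at about 0.0313 to 0.500 kg/ha. Greenhouse duration was three to four weeks.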

[5] = system: ORYSAT (Rice, Tebonnet); experiment: Preemergence herbicidal evaluation; format: in vivo, Oryza sativa, (L.) Tebonnet; conditions: rated 4-5 weeks after treatment
Procedure, shortened: as §2

[6] = system: CASOB (Sicklepod); experiment: Postemergence herbicidal evaluation; format: in vivo, Cassia obtusifolia; conditions: postemergence
Procedure, shortened: as §1

[7] = system: CYPIR (Rice Flatsedge); experiment: Preemergence weed control under flooded paddy conditions; format: in vivo, Cyperus iria; conditions: rated 3-4 weeks after treatment
Procedure, shortened: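 Visual injury scored 0-9 against control three to four weeks post-treatment, greenhouse-grown. Application: acetone/water (50/50) solutions dosed directly into flood water (1.5-3 cm over silt loam, planted top 0.5 cm), roughly 0.0313 to 0.500 kg/ha active ingredient.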

[8] = system: GALAP (Galium); experiment: Preemergence herbicidal evaluation; format: in vivo, Galium aparine; conditions: rated 4-5 weeks after treatment
Procedure, shortened: as §2

[9] = system: ECHCG (Barnyardgrass); experiment: Postemergence herbicidal evaluation; format: in vivo, Echinochloa crus-galli; conditions: postemergence
Procedure, shortened: as §1

[10] = system: GLXMAW (Soybean, Williams); experiment: Preemergence herbicidal evaluation; format: in vivo, Glycine max, (L.) Merr. cv Williams; conditions: rated 4-5 weeks after treatment
Procedure, shortened: as §2

[11] = system: ORYSAT (Rice, Tebonnet); experiment: Postemergence herbicidal evaluation; format: in vivo, Oryza sativa, (L.) Tebonnet; conditions: postemergence
Procedure, shortened: as §1

[12] = system: ZEAMX (Corn, Field); experiment: Preemergence herbicidal evaluation; format: in vivo, Zea mays; conditions: rated 4-5 weeks after treatment
Procedure, shortened: as §2

[13] = system: SETVI (Foxtail, Green); experiment: Preemergence herbicidal evaluation; format: in vivo, Setaria viridis; conditions: rated 4-5 weeks after treatment
Procedure, shortened: as §2

## C[C@@H](C(=O)OC(C)(C)C)N1C(=O)CSC1=Nc1cc(-n2c(=O)cc(C(F)(F)F)n(C)c2=O)c(F)cc1Cl [Compound 75, tert-Butyl 2-{{2-chloro-5-[3,6-dihydro-3-methyl-2,6-dioxo-4-(trifluoromethyl)-1(2H)-pyrimidinyl]-4-fluorophenyl}imino}-α-methyl-4-oxo-3-thiazolidineacetate, L-]
[1]; rate 0.0158 kg/ha
  CHEAL herbicidal rating: 7.0
[1]; rate 0.0315 kg/ha
  CHEAL herbicidal rating: 7.0
[1]; rate 0.0630 kg/ha
  CHEAL herbicidal rating: 7.0
[2]; Rate 0.0313 kg/ha
  Herbicidal rating CYPSE: 2.0
[2]; Rate 0.0625 kg/ha
  Herbicidal rating CYPSE: 3.0
[2]; Rate 0.1250 kg/ha
  Herbicidal rating CYPSE: 3.0
[2]; Rate 0.2500 kg/ha
  Herbicidal rating CYPSE: 3.0
[3]; rate 0.0156 kg/ha
  Preemergence herbicidal rating TRZAWR: 0.0
[3]; rate 0.0313 kg/ha
  Preemergence herbicidal rating TRZAWR: 0.0
[3]; rate 0.0625 kg/ha
  Preemergence herbicidal rating TRZAWR: 0.0
[3]; rate 0.1250 kg/ha
  Preemergence herbicidal rating TRZAWR: 1.0
[3]; rate 0.2500 kg/ha
  Preemergence herbicidal rating TRZAWR: 2.0
[4]; 0.0313 kg/ha
  SAGPY herbicidal effect rating: 0.0
[4]; 0.0625 kg/ha
  SAGPY herbicidal effect rating: 0.0
[4]; 0.1250 kg/ha
  SAGPY herbicidal effect rating: 0.0
[4]; 0.2500 kg/ha
  SAGPY herbicidal effect rating: 3.0
[5]; rate 0.0156 kg/ha
  Preemergence herbicidal rating ORYSAT: 0.0
[5]; rate 0.0313 kg/ha
  Preemergence herbicidal rating ORYSAT: 0.0
[5]; rate 0.0625 kg/ha
  Preemergence herbicidal rating ORYSAT: 0.0
[5]; rate 0.1250 kg/ha
  Preemergence herbicidal rating ORYSAT: 1.0
[5]; rate 0.2500 kg/ha
  Preemergence herbicidal rating ORYSAT: 2.0
[6]; rate 0.0158 kg/ha
  CASOB herbicidal rating: 1.0
[6]; rate 0.0315 kg/ha
  CASOB herbicidal rating: 1.0
[6]; rate 0.0630 kg/ha
  CASOB herbicidal rating: 3.0
[7]; 0.0313 kg/ha
  CYPIR herbicidal effect rating: 0.0
[7]; 0.0625 kg/ha
  CYPIR herbicidal effect rating: 0.0
[7]; 0.1250 kg/ha
  CYPIR herbicidal effect rating: 6.0
[7]; 0.2500 kg/ha
  CYPIR herbicidal effect rating: 6.0
[8]; rate 0.0156 kg/ha
  Preemergence herbicidal rating GALAP: 0.0
[8]; rate 0.0313 kg/ha
  Preemergence herbicidal rating GALAP: 0.0
[8]; rate 0.0625 kg/ha
  Preemergence herbicidal rating GALAP: 0.0
[8]; rate 0.1250 kg/ha
  Preemergence herbicidal rating GALAP: 0.0
[8]; rate 0.2500 kg/ha
  Preemergence herbicidal rating GALAP: 0.0
[9]; rate 0.0158 kg/ha
  ECHCG herbicidal rating: 1.0
[9]; rate 0.0315 kg/ha
  ECHCG herbicidal rating: 1.0
[9]; rate 0.0630 kg/ha
  ECHCG herbicidal rating: 1.0
[10]; rate 0.0156 kg/ha
  Preemergence herbicidal rating GLXMAW: 0.0
[10]; rate 0.0313 kg/ha
  Preemergence herbicidal rating GLXMAW: 0.0
[10]; rate 0.0625 kg/ha
  Preemergence herbicidal rating GLXMAW: 0.0
[10]; rate 0.1250 kg/ha
  Preemergence herbicidal rating GLXMAW: 2.0
[10]; rate 0.2500 kg/ha
  Preemergence herbicidal rating GLXMAW: 2.0
[11]; rate 0.0158 kg/ha
  ORYSAT herbicidal rating: 2.0
[11]; rate 0.0315 kg/ha
  ORYSAT herbicidal rating: 2.5
[11]; rate 0.0630 kg/ha
  ORYSAT herbicidal rating: 2.5
[12]; rate 0.0156 kg/ha
  Preemergence herbicidal rating ZEAMX: 0.0
[12]; rate 0.0313 kg/ha
  Preemergence herbicidal rating ZEAMX: 0.0
[12]; rate 0.0625 kg/ha
  Preemergence herbicidal rating ZEAMX: 0.0
[12]; rate 0.1250 kg/ha
  Preemergence herbicidal rating ZEAMX: 1.0
[12]; rate 0.2500 kg/ha
  Preemergence herbicidal rating ZEAMX: 3.0
[13]; rate 0.0156 kg/ha
  Preemergence herbicidal rating SETVI: 0.0
[13]; rate 0.0313 kg/ha
  Preemergence herbicidal rating SETVI: 0.0
[13]; rate 0.0625 kg/ha
  Preemergence herbicidal rating SETVI: 0.0
[13]; rate 0.1250 kg/ha
  Preemergence herbicidal rating SETVI: 9.0
[13]; rate 0.2500 kg/ha
  Preemergence herbicidal rating SETVI: 9.0

## CCOC(=O)[C@H](Cc1ccccc1)N1C(=O)CSC1=Nc1cc(-n2c(=O)cc(C(F)(F)F)n(C)c2=O)c(F)cc1Cl [Compound 80, Ethyl α-benzyl-2-{{2-chloro-5-[3,6-dihydro-3-methyl-2,6-dioxo-4-(trifluoromethyl)-1(2H)-pyrimidinyl]-4-fluorophenyl}imino}-4-oxo-3-thiazolidineacetate, L-]
[1]; rate 0.0158 kg/ha
  CHEAL herbicidal rating: 9.0
[1]; rate 0.0315 kg/ha
  CHEAL herbicidal rating: 9.0
[1]; rate 0.0630 kg/ha
  CHEAL herbicidal rating: 9.0
[2]; Rate 0.0313 kg/ha
  Herbicidal rating CYPSE: 3.0
[2]; Rate 0.0625 kg/ha
  Herbicidal rating CYPSE: 3.0
[2]; Rate 0.1250 kg/ha
  Herbicidal rating CYPSE: 3.0
[2]; Rate 0.2500 kg/ha
  Herbicidal rating CYPSE: 4.0
[3]; rate 0.0156 kg/ha
  Preemergence herbicidal rating TRZAWR: 0.0
[3]; rate 0.0313 kg/ha
  Preemergence herbicidal rating TRZAWR: 0.0
[3]; rate 0.0625 kg/ha
  Preemergence herbicidal rating TRZAWR: 0.0
[3]; rate 0.1250 kg/ha
  Preemergence herbicidal rating TRZAWR: 2.0
[3]; rate 0.2500 kg/ha
  Preemergence herbicidal rating TRZAWR: 1.0
[4]; 0.0313 kg/ha
  SAGPY herbicidal effect rating: 0.0
[4]; 0.0625 kg/ha
  SAGPY herbicidal effect rating: 0.0
[4]; 0.1250 kg/ha
  SAGPY herbicidal effect rating: 0.0
[4]; 0.2500 kg/ha
  SAGPY herbicidal effect rating: 0.0
[5]; rate 0.0156 kg/ha
  Preemergence herbicidal rating ORYSAT: 0.0
[5]; rate 0.0313 kg/ha
  Preemergence herbicidal rating ORYSAT: 0.0
[5]; rate 0.0625 kg/ha
  Preemergence herbicidal rating ORYSAT: 0.0
[5]; rate 0.1250 kg/ha
  Preemergence herbicidal rating ORYSAT: 1.0
[5]; rate 0.2500 kg/ha
  Preemergence herbicidal rating ORYSAT: 1.0
[6]; rate 0.0158 kg/ha
  CASOB herbicidal rating: 1.0
[6]; rate 0.0315 kg/ha
  CASOB herbicidal rating: 5.0
[6]; rate 0.0630 kg/ha
  CASOB herbicidal rating: 9.0
[7]; 0.0313 kg/ha
  CYPIR herbicidal effect rating: 5.0
[7]; 0.0625 kg/ha
  CYPIR herbicidal effect rating: 7.0
[7]; 0.1250 kg/ha
  CYPIR herbicidal effect rating: 7.0
[7]; 0.2500 kg/ha
  CYPIR herbicidal effect rating: 7.0
[8]; rate 0.0156 kg/ha
  Preemergence herbicidal rating GALAP: 0.0
[8]; rate 0.0313 kg/ha
  Preemergence herbicidal rating GALAP: 0.0
[8]; rate 0.0625 kg/ha
  Preemergence herbicidal rating GALAP: 0.0
[8]; rate 0.1250 kg/ha
  Preemergence herbicidal rating GALAP: 4.0
[8]; rate 0.2500 kg/ha
  Preemergence herbicidal rating GALAP: 4.0
[9]; rate 0.0158 kg/ha
  ECHCG herbicidal rating: 1.0
[9]; rate 0.0315 kg/ha
  ECHCG herbicidal rating: 2.0
[9]; rate 0.0630 kg/ha
  ECHCG herbicidal rating: 3.0
[10]; rate 0.0156 kg/ha
  Preemergence herbicidal rating GLXMAW: 0.0
[10]; rate 0.0313 kg/ha
  Preemergence herbicidal rating GLXMAW: 0.0
[10]; rate 0.0625 kg/ha
  Preemergence herbicidal rating GLXMAW: 1.0
[10]; rate 0.1250 kg/ha
  Preemergence herbicidal rating GLXMAW: 1.0
[10]; rate 0.2500 kg/ha
  Preemergence herbicidal rating GLXMAW: 1.0
[11]; rate 0.0158 kg/ha
  ORYSAT herbicidal rating: 3.5
[11]; rate 0.0315 kg/ha
  ORYSAT herbicidal rating: 3.5
[11]; rate 0.0630 kg/ha
  ORYSAT herbicidal rating: 4.0
[12]; rate 0.0156 kg/ha
  Preemergence herbicidal rating ZEAMX: 0.0
[12]; rate 0.0313 kg/ha
  Preemergence herbicidal rating ZEAMX: 0.0
[12]; rate 0.0625 kg/ha
  Preemergence herbicidal rating ZEAMX: 1.0
[12]; rate 0.1250 kg/ha
  Preemergence herbicidal rating ZEAMX: 3.0
[12]; rate 0.2500 kg/ha
  Preemergence herbicidal rating ZEAMX: 3.0
[13]; rate 0.0156 kg/ha
  Preemergence herbicidal rating SETVI: 0.0
[13]; rate 0.0313 kg/ha
  Preemergence herbicidal rating SETVI: 0.0
[13]; rate 0.0625 kg/ha
  Preemergence herbicidal rating SETVI: 1.0
[13]; rate 0.1250 kg/ha
  Preemergence herbicidal rating SETVI: 7.0
[13]; rate 0.2500 kg/ha
  Preemergence herbicidal rating SETVI: 7.0
